Holding throughout (test): NCI anticancer screen, dose series, 48 h
Assay [1] concerns MALME-3M melanoma.
The test system of assay [2] is A549 NSCLC.
Assay [3] deals with HOP-62 NSCLC.
Assay [4] concerns MOLT-4 leukemia.
For assay [5], the system named is M14 melanoma.
For assay [6], the system named is EKVX NSCLC.
In assay [7] the test system is HL-60(TB) leukemia.
Assay [8] concerns RXF 393 renal.
The test system of assay [9] is NCI/ADR-RES ovarian.
For assay [10], the system named is OVCAR-5 ovarian.
Assay [11] has as its system NCI-H522 lung.
The subject of assay [12] is SF-539 CNS.
In assay [13] the test system is ACHN renal.
Assay [14] has as its system CCRF-CEM leukemia.
In assay [15] the test system is SN12C renal.
Assay [16] has as its system UACC-257 melanoma.
Assay [17] relates to T-47D breast.
Assay [18] has as its system A498 renal.
Assay [19] relates to UO-31 renal.
Assay [20] relates to BT-549 breast.

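Where inhibition never reached the appropriate level, the endpoint shown equals the highest concentration tested. Otherwise, values were interpolated linearly from a five-concentration, 48-hour dose response in 96-well plates. TGI denotes the concentration required for complete inhibition of growth.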

Experimental findings from PubChem BioAssay (NCI) are described below.

Regarding `COC(=O)c1cccc(C)c1C1CN=NC12Cc1c(ccc(C)c1C)C2=O` (stereo not drawn), the TGI was 78.1 µM in assay [1]; above 100 µM in assay [2]; above 100 µM in [3]; 86.7 µM in assay [4]; above 100 µM in [5]; 57.9 µM in assay [6]. The TGI was 37.1 µM in assay [7]; 92.4 µM in [8]; above 100 µM in assay [9]; above 100 µM in assay [10]; above 100 µM in [11]; above 100 µM in assay [12]. For the same compound, the TGI was above 100 µM in assay [13]; above 100 µM in [14]; above 100 µM in assay [15]; above 100 µM in [16]; 25.1 µM in [17]; above 100 µM in [18]. The same compound showed a TGI in [19] above 100 µM.

Turning to `CC1N(O)C(c2ccccc2)C(c2ccccc2)=[N+]1[O-]` (stereo not drawn), the TGI in assay [1], in assay [2], in [20], in assay [3], in [4] and in assay [5] was above 100 µM each time. In addition, the TGI in assay [6], in [7], in assay [8], in [9], in assay [10] and in assay [12] was above 100 µM throughout. Further, the TGI in [13], in assay [14], in [15], in assay [16], in assay [18] and in assay [19] was above 100 µM each time.

As to `Cc1ccc2nc(CN3CCCCC3)cc(=O)n2c1`, the TGI in assay [1], in assay [2], in assay [20], in assay [3], in assay [4] and in assay [5] was above 100 µM in each case. For the same compound, the TGI in assay [6], in [7], in assay [9], in assay [10], in assay [11] and in assay [12] was above 100 µM throughout. Also, the TGI in assay [13], in assay [14], in assay [15], in assay [16] and in assay [19] was above 100 µM in each case.

For the compound `Cn1c(=S)[nH]c2c(Cl)cc(Cl)cc2c1=O`, the TGI in assay [2], in assay [20], in assay [3], in assay [4], in assay [5] and in assay [6] was above 100 µM throughout. The TGI is 78.8 µM in assay [7]; above 100 µM in assay [8]; above 100 µM in assay [9]; above 100 µM in assay [10]; above 100 µM in assay [11]; above 100 µM in assay [12]. Also, the TGI in assay [13] was above 100 µM; in assay [14], 64.7 µM; in assay [15] it was above 100 µM; in assay [16], above 100 µM; in [19], above 100 µM.

Take `Cc1cc(C)n(C(=O)C(C)Sc2nnc(SC(C)C(=O)n3nc(C)cc3C)s2)n1` (stereo not drawn): the TGI in [1], in assay [2], in assay [20], in [3], in [4] and in assay [5] was above 100 µM throughout. The TGI in [6], in [7], in [8], in assay [9], in assay [10] and in [13] was above 100 µM in each case. For the same compound, the TGI in [14], in [16], in assay [18] and in assay [19] was above 100 µM in each case.

Take `CCOP(=O)(CCC(O)CNc1nc(N)nc(Cl)c1N=Nc1ccc(Cl)cc1)OCC` (stereo not drawn): the TGI in assay [1] turned out to be 21.4 µM; in assay [2], 33.8 µM; in [3], 40.2 µM; in [4], 37.1 µM; in assay [6], 40.6 µM; in assay [7], 33.3 µM. The TGI was 21.1 µM in [8]; 46.9 µM in [9]; 34.1 µM in assay [10]; 23 µM in [11]; 31.6 µM in assay [13]; 46.5 µM in [14]. Further, the TGI turned out to be 42.7 µM in [15]; 29.5 µM in assay [16]; 37.3 µM in assay [17]; 27.7 µM in assay [18]; 16.6 µM in assay [19].

In the case of `Cc1nc2c(n1CCCl)C(=O)c1ccccc1C2=O`, the TGI in assay [1] is 19.2 µM; in assay [2], above 100 µM; in assay [20], 38.3 µM; in assay [3] it was 62.4 µM; in assay [4], 78 µM; in [5], 17.1 µM. For the same compound, the TGI is above 100 µM in [6]; 83.8 µM in assay [7]; 46.2 µM in assay [8]; 63.6 µM in assay [9]; 36.3 µM in [10]; 49.6 µM in assay [11]. In addition, the TGI in assay [12] was above 100 µM; in assay [13], above 100 µM; in [14], above 100 µM; in [15], above 100 µM; in assay [16] it was 28.9 µM.

On to `CCCN(CCC)C(=S)N/N=C/c1cccc(C)n1`, for which the TGI amounted to 14.9 µM in [1]; 10.3 µM in assay [2]; 0.588 µM in assay [4]; 1.01 µM in assay [5]; 8.34 µM in assay [6]; 0.384 µM in [7]. Also, the TGI in assay [8] came out at 0.637 µM; in assay [9] it was 1.07 µM; in assay [10], 47.2 µM; in [11], 2.51 µM; in [12], 0.545 µM; in assay [13], 0.821 µM. Besides, the TGI in [14] came to 0.275 µM; in assay [15], 3.13 µM; in assay [16], 0.457 µM; in assay [18], 0.473 µM; in assay [19] it was 12.2 µM.
